Results: patent US12102089B2, “Method for inactivating mold spores” (DSM IP ASSETS B.V., priority 2017, dated 2024)

System: Paecilomyces variotti (ATCC 22319)
Assay: Heat treatment of Paecilomyces variotti spores in ice tea with natamycin, visual growth
Assay type: cell-based
Parameters: key to growth (+) or no growth (−): growth (+); no growth (−)
Method: Commercially available ice tea (Lipton, peach flavor, non-carbonated, 1.5 L) was adjusted to high water hardness by adding 1 ml of a solution of 39 g CaCl2 and 27 g MgCl2 added to 934 g water. ⅓ of this ice tea preparation (the pH of which was 3.15) was left as-such, ⅓ of the preparation was enriched with 5 ppm natamycin and ⅓ of the preparation was enriched with 10 ppm natamycin. Samples of 5 ml were made from each preparation in 15 ml sterile plastic tubes. Of each preparation 8 samples were pre-heated to the desired pasteurization temperature using a water bath. Temperatures used were RT, 60, 65, 70, 75, 80, 85 and 90° C. When the desired temperature was reached, 100 μl of a 2500 spores/ml spore suspension of Aspergillus niger ATCC 9029AA was added to each tube. Subsequently, the samples were kept for 30 seconds at the temperature in question in the water bath. Next, the samples were cooled on ice to a temperature of 25° C. Samples were incubated at 25° C. and visually examined for growth (formation of mold flakes or turbidity) for two months. Additionally, samples were enumerated according to ISO protocol 21527-1.2008 on day 0 (before heat treatment) and day 1 (after heat treatment) to count immediate loss of viability. […] For the results, see Table 1. […] Example 1 was repeated however with Paecilomyces variotti (ATCC 22319, 1000 spores/ml) instead of Aspergillus niger.

## C[C@@H]1C/C=C/C=C/C=C/C=C/[C@H](O[C@@H]2O[C@H](C)[C@@H](O)[C@H](N)[C@@H]2O)C[C@@H]2O[C@](O)(C[C@@H](O)C[C@H]3O[C@@H]3/C=C/C(=O)O1)C[C@H](O)[C@H]2C(=O)O [natamycin]
90° C., in the presence of natamycin
  germination: no germination occurred
RT and 60° C., 5 or 10 ppm natamycin
  germination: delayed germination
T 60, natamycin 5 ppm, day 1
  growth (+) or no growth (−): −
T 60, natamycin 5 ppm, day 2
  growth (+) or no growth (−): −
T 60, natamycin 5 ppm, day 3
  growth (+) or no growth (−): −
T 60, natamycin 5 ppm, day 4
  growth (+) or no growth (−): −
T 60, natamycin 5 ppm, day 5
  growth (+) or no growth (−): −
T 60, natamycin 5 ppm, day 6
  growth (+) or no growth (−): −
T 60, natamycin 5 ppm, day 7
  growth (+) or no growth (−): −
T 60, natamycin 5 ppm, day 8
  growth (+) or no growth (−): −
T 60, natamycin 5 ppm, day 9
  growth (+) or no growth (−): −
T 60, natamycin 5 ppm, day 10
  growth (+) or no growth (−): +
T 60, natamycin 5 ppm, day 11
  growth (+) or no growth (−): +
T 60, natamycin 5 ppm, day 12
  growth (+) or no growth (−): +
T 60, natamycin 5 ppm, day 13
  growth (+) or no growth (−): +
T 60, natamycin 5 ppm, day 14
  growth (+) or no growth (−): +
T 60, natamycin 5 ppm, day 15
  growth (+) or no growth (−): +
T 60, natamycin 5 ppm, day 16
  growth (+) or no growth (−): +
T 60, natamycin 5 ppm, day 17
  growth (+) or no growth (−): +
T 60, natamycin 5 ppm, day 50
  growth (+) or no growth (−): +
T 60, natamycin 10 ppm, day 1
  growth (+) or no growth (−): −
T 60, natamycin 10 ppm, day 2
  growth (+) or no growth (−): −
T 60, natamycin 10 ppm, day 3
  growth (+) or no growth (−): −
T 60, natamycin 10 ppm, day 4
  growth (+) or no growth (−): −
T 60, natamycin 10 ppm, day 5
  growth (+) or no growth (−): −
T 60, natamycin 10 ppm, day 6
  growth (+) or no growth (−): −
T 60, natamycin 10 ppm, day 7
  growth (+) or no growth (−): −
T 60, natamycin 10 ppm, day 8
  growth (+) or no growth (−): −
T 60, natamycin 10 ppm, day 9
  growth (+) or no growth (−): −
T 60, natamycin 10 ppm, day 10
  growth (+) or no growth (−): −
T 60, natamycin 10 ppm, day 11
  growth (+) or no growth (−): −
T 60, natamycin 10 ppm, day 12
  growth (+) or no growth (−): −
T 60, natamycin 10 ppm, day 13
  growth (+) or no growth (−): −
T 60, natamycin 10 ppm, day 14
  growth (+) or no growth (−): +
T 60, natamycin 10 ppm, day 15
  growth (+) or no growth (−): +
T 60, natamycin 10 ppm, day 16
  growth (+) or no growth (−): +
T 60, natamycin 10 ppm, day 17
  growth (+) or no growth (−): +
T 60, natamycin 10 ppm, day 50
  growth (+) or no growth (−): +
T 65, natamycin 5 ppm, day 1
  growth (+) or no growth (−): −
T 65, natamycin 5 ppm, day 2
  growth (+) or no growth (−): −
T 65, natamycin 5 ppm, day 3
  growth (+) or no growth (−): −
T 65, natamycin 5 ppm, day 4
  growth (+) or no growth (−): −
T 65, natamycin 5 ppm, day 5
  growth (+) or no growth (−): −
T 65, natamycin 5 ppm, day 6
  growth (+) or no growth (−): −
T 65, natamycin 5 ppm, day 7
  growth (+) or no growth (−): −
T 65, natamycin 5 ppm, day 8
  growth (+) or no growth (−): −
T 65, natamycin 5 ppm, day 9
  growth (+) or no growth (−): −
T 65, natamycin 5 ppm, day 10
  growth (+) or no growth (−): −
T 65, natamycin 5 ppm, day 11
  growth (+) or no growth (−): −
T 65, natamycin 5 ppm, day 12
  growth (+) or no growth (−): −
T 65, natamycin 5 ppm, day 13
  growth (+) or no growth (−): −
T 65, natamycin 5 ppm, day 14
  growth (+) or no growth (−): −
T 65, natamycin 5 ppm, day 15
  growth (+) or no growth (−): −
T 65, natamycin 5 ppm, day 16
  growth (+) or no growth (−): −
T 65, natamycin 5 ppm, day 17
  growth (+) or no growth (−): −
T 65, natamycin 5 ppm, day 50
  growth (+) or no growth (−): −
T 65, natamycin 10 ppm, day 1
  growth (+) or no growth (−): −
T 65, natamycin 10 ppm, day 2
  growth (+) or no growth (−): −
T 65, natamycin 10 ppm, day 3
  growth (+) or no growth (−): −
T 65, natamycin 10 ppm, day 4
  growth (+) or no growth (−): −
T 65, natamycin 10 ppm, day 5
  growth (+) or no growth (−): −
T 65, natamycin 10 ppm, day 6
  growth (+) or no growth (−): −
T 65, natamycin 10 ppm, day 7
  growth (+) or no growth (−): −
T 65, natamycin 10 ppm, day 8
  growth (+) or no growth (−): −
T 65, natamycin 10 ppm, day 9
  growth (+) or no growth (−): −
T 65, natamycin 10 ppm, day 10
  growth (+) or no growth (−): −
T 65, natamycin 10 ppm, day 11
  growth (+) or no growth (−): −
T 65, natamycin 10 ppm, day 12
  growth (+) or no growth (−): −
T 65, natamycin 10 ppm, day 13
  growth (+) or no growth (−): −
T 65, natamycin 10 ppm, day 14
  growth (+) or no growth (−): −
T 65, natamycin 10 ppm, day 15
  growth (+) or no growth (−): −
T 65, natamycin 10 ppm, day 16
  growth (+) or no growth (−): −
T 65, natamycin 10 ppm, day 17
  growth (+) or no growth (−): −
T 65, natamycin 10 ppm, day 50
  growth (+) or no growth (−): −
T 70, natamycin 5 ppm, day 1
  growth (+) or no growth (−): −
T 70, natamycin 5 ppm, day 2
  growth (+) or no growth (−): −
T 70, natamycin 5 ppm, day 3
  growth (+) or no growth (−): −
T 70, natamycin 5 ppm, day 4
  growth (+) or no growth (−): −
T 70, natamycin 5 ppm, day 5
  growth (+) or no growth (−): −
T 70, natamycin 5 ppm, day 6
  growth (+) or no growth (−): −
T 70, natamycin 5 ppm, day 7
  growth (+) or no growth (−): −
T 70, natamycin 5 ppm, day 8
  growth (+) or no growth (−): −
T 70, natamycin 5 ppm, day 9
  growth (+) or no growth (−): −
T 70, natamycin 5 ppm, day 10
  growth (+) or no growth (−): −
T 70, natamycin 5 ppm, day 11
  growth (+) or no growth (−): −
T 70, natamycin 5 ppm, day 12
  growth (+) or no growth (−): −
T 70, natamycin 5 ppm, day 13
  growth (+) or no growth (−): −
T 70, natamycin 5 ppm, day 14
  growth (+) or no growth (−): −
T 70, natamycin 5 ppm, day 15
  growth (+) or no growth (−): −
T 70, natamycin 5 ppm, day 16
  growth (+) or no growth (−): −
T 70, natamycin 5 ppm, day 17
  growth (+) or no growth (−): −
T 70, natamycin 5 ppm, day 50
  growth (+) or no growth (−): −
T 70, natamycin 10 ppm, day 9
  growth (+) or no growth (−): −
T 70, natamycin 10 ppm, day 10
  growth (+) or no growth (−): −
T 70, natamycin 10 ppm, day 11
  growth (+) or no growth (−): −
T 70, natamycin 10 ppm, day 12
  growth (+) or no growth (−): −
T 70, natamycin 10 ppm, day 13
  growth (+) or no growth (−): −
T 70, natamycin 10 ppm, day 14
  growth (+) or no growth (−): −
T 70, natamycin 10 ppm, day 15
  growth (+) or no growth (−): −
T 70, natamycin 10 ppm, day 16
  growth (+) or no growth (−): −
T 70, natamycin 10 ppm, day 17
  growth (+) or no growth (−): −
T 70, natamycin 10 ppm, day 50
  growth (+) or no growth (−): −
